This note sets out measurements from patent US20050234073A1, “Methods of inhibiting inflammation” (priority 2003, published 2005).

Structures are written as SMILES.

Test [1] concerns moDCs. Kind of test: Flow cytometry of surface CD1d and MHC class I on human monocyte-derived DCs. As to conditions: moDCs after 5 days in presence of inhibitor. Type of test: cell-based. An excerpt:
FIG. 20F is a series of flow cytometric analysis showing surface staining of human monocyte-derived DCs were stained with 42.1 (CD1d), anti-HLA-A,B,C (MHC class I), or isotype control antibodies (dashed lines) after 4 days of differentiation in the presence of BMS212122 (gray lines) or vehicle control (black lines).
Bone marrow was extracted from the femurs of C57BL6 or MTPmx1cre mice, washed once in PBS and resuspended in R10 supplemented with culture supernatant from murine GM-CSF transfected cells for a final concentration of 200 U/mL GM-CSF. BMDCs were then cultured in bacteriological plates for 12-14 days as described. Differentiated cells were harvested by gentle pipetting, washed in PBS, and analyzed by flow cytometry for surface expression of CD11c and I-A^b. […] After 5 days cells were dislodged by gentle pipetting, analyzed by flow cytometry and assayed for antigen presentation.
Mouse cells were stained using the following antibodies: FITC-conjugated α-CD1d (1B1, PharMingen); PE-conjugated α-CD11c (HL3, PharMingen); FITC-conjugated α-1-A^d (AMS-32.1, PharMingen); PE-conjugated α-CD69 (H1.2F3, PharMingen); PE-conjugated α-B220 (RA3-6B2, PharMingen). […] Staining was performed in the presence of Via-Probe (PharMingen) and analyzed with a FACSort flow cytometer (Becton Dickinson). […]

Test [2] concerns moDCs. Kind of test: Human moDC presentation of α-galcer to DN32 iNKT cells (IL-2 ELISA). Type of test: cell-based. As to conditions: moDCs differentiated in presence of inhibitor. On the procedure: FIG. 20G is a line graph showing IL-2 production in human moDCs differentiated in the presence of BMS212122 (◯) or vehicle (●) were incubated with α-galcer. IL-2 concentrations were measured by ELISA of 24 hour culture supernatants. *, p<0.05; **, p<0.01.
APCs were incubated with 100 ng/mL α-galcer (kindly provided by Dr. H. Ploegh) for 3 hours, washed three times in PBS and aliquoted into a 96 well plate at 10^6 cells/mL. DN32 cells were added at 1:1 E:T ratio unless otherwise indicated. CD4^+ cells were isolated from spleens of OT-II transgenic mice using positive selection on CD4 magnetic beads (Miltenyi Biotec) and incubated with APCs and 100 μg/mL ovalbumin. The 24.8 NKT cell line was incubated with APCs in the absence of added antigen at E:T=2:1 unless otherwise indicated. Mouse IL-2 production was assessed by ELISA (OptEIA, BD PharMingen) of 24 or 40 hour culture supernatants. […]
Bone marrow was extracted from the femurs of C57BL6 or MTPmx1cre mice, washed once in PBS and resuspended in R10 supplemented with culture supernatant from murine GM-CSF transfected cells for a final concentration of 200 U/mL GM-CSF. […] Differentiated cells were harvested by gentle pipetting, washed in PBS, and analyzed by flow cytometry for surface expression of CD11c and I-A^b. […] After 5 days cells were dislodged by gentle pipetting, analyzed by flow cytometry and assayed for antigen presentation. […]
On the technique in general: An ELISA detects its analyte on a solid surface through an enzyme-linked reagent.

The subject of test [3] is splenocytes. Nature of the test: Splenocyte / CD11c+ dendritic cell CD1d-restricted presentation to DN32 and 24.8 NKT cells (IL-2 ELISA). Type of test: cell-based, mouse. The procedure: FIG. 17B is a series of bar charts showing IL-2 production of splenocytes isolated from wild type mice in the presence or absence of exogenous antigens. Splenocytes were incubated for 24 hours with BMS212122 and washed. Exogenous antigens ovalbumin or α-galcer was added as indicated. Splenocytes were then co cultured with: CD4^+ cells from an OT-II transgenic mouse (left); DN32 NKT cells (center); or autoreactive 24.8 NKT cells (right). IL-2 concentrations were measured by ELISA of 40 hour culture supernatants. *, p<0.05.
FIG. 17C is a bar chart showing IL-2 production of splenocytes or bone marrow derived dendritic cells co cultured with 24.8 NKT cells and incubated for 24 hours with BMS212122. Anti-CD1d mAb 1B1 or an isotype control was added as indicated. IL-2 concentrations were measured by ELISA of 40 hour culture supernatants. (nd=not detected) *, p<0.02.
APCs were incubated with 100 ng/mL α-galcer (kindly provided by Dr. H. Ploegh) for 3 hours, washed three times in PBS and aliquoted into a 96 well plate at 10^6 cells/mL. DN32 cells were added at 1:1 E:T ratio unless otherwise indicated. CD4^+ cells were isolated from spleens of OT-II transgenic mice using positive selection on CD4 magnetic beads (Miltenyi Biotec) and incubated with APCs and 100 μg/mL ovalbumin. […] Mouse IL-2 production was assessed by ELISA (OptEIA, BD PharMingen) of 24 or 40 hour culture supernatants. […]

In the case of `Cc1ccc2c(nc(C)n2CCCCC2(C(=O)NCC(F)(F)F)c3ccccc3-c3ccccc32)c1NC(=O)c1ccccc1-c1ccc(C(F)(F)F)cc1` [BMS212122, 9-[4-[2,5-Dimethyl-4-[[[4′-(trifluoromethyl)[1,1′-biphenyl]-2-yl]carbonyl]amino]-1H-benzimidazol-1-yl]butyl]-N-(2,2,2-trifluoroethyl)-9H-fluorene-9-carboxamide], the “surface CD1d mean fluorescence intensity” value in test [1] (vehicle 4.2, p<0.05) is 3.3. Also, in test [1] (vehicle 70), the “MHC class I mean fluorescence intensity” value was 76. For the same compound, the “capacity to present α-galcer to DN32 iNKT cells” value in test [2] was “reduced capacity”. The “effect on presentation of an endogenous ligand to 24.8 NKT cells” value in test [3] (CD11c-positive dendritic cell population from splenocytes) is “highly pronounced”. Further, the “ability to present exogenous and endogenous CD1d-restricted antigens” value in test [3] (splenocytes incubated 24 hours with inhibitor prior to addition of NKT cells) is “reduced”.
